Source: patent US6649201B2, “Eggshell derived monocalcium and dicalcium phosphate” (Board of Regents of University of Nebraska, priority 2001, dated 2003)

Test: 21-day starter chick feeding study: relative bioavailability of phosphate sources (slope ratio assay)
Details: in vivo
Excerpt: (CDP) source in starter chick diets. […] Each dietary treatment was replicated six times with eleven chicks per pen during a 21-day experimental period. […] A slope ratio assay using linear regression analysis was used to determine relative bioavailabilities.

eggshell derived monocalcium phosphate [EDMCP]
availability of the phosphate fraction to the animal vs currently available commercial products: more available
